{"source": "patent US4752606A", "about": "“Pharmaceutical compositions and preparations thereof” (501 Noristan Limited, priority 1982, dated 1988)", "key": {"[1]": {"experiment": "Anti-inflammatory effect: carrageenan induced rat paw oedema", "format": "in vivo", "method": "The compounds (aspirin and oleanolic acid) were administered orally."}, "mice [2]": {"tested_on": "mice", "experiment": "Acute toxicity of aspirin with and without oleanolic acid", "format": "in vivo", "conditions": "oral, males, mixture 1:1 mass ratio"}, "[3]": {"experiment": "Acute toxicity of aspirin with and without oleanolic acid", "format": "in vivo", "conditions": "mouse, in vivo, po, mice, mixture 1:1 mass ratio"}, "[4]": {"experiment": "Analgesic effect of aspirin in the presence of oleanolic acid", "format": "in vivo, rats", "conditions": "Rattus norvegicus, read-out: ED50 (analgesic effect)", "method": "(§1) The analgesic effect of the compound was tested in oral application to rats. 45 Minutes after application of the compound, the rats received an intraperitoneal injection of 1.0 ml 1% acetic acid. This causes a series of characteristic spasms in the untreated control animals. Analgesic effects are indicated by the reduction of the frequency of these spasms. The following results were obtained with the compound:\nMeasurement of the analgesic effect of the test compounds was done as set out in Test 1. The ED50 was computed for the various treatments as follows: […]"}, "[5]": {"experiment": "Antithrombotic effect: pulmonary thrombo-embolism in animals treated with arachnidoic acid", "format": "in vivo", "conditions": "for effect on occurrence of pulmonary thrombo-embolism: animals treated with arachnidoic acid", "description": "Oleanolic acid has no effect in this regard."}, "[6]": {"experiment": "Healing effect on chemically induced ulceration (acetic acid)", "format": "in vivo, rats", "conditions": "100 mg/kg per os twice daily, days 1-10; day 11; vs untreated control", "method": "Ulceration was induced by injecting 30% acetic acid into the stomach of the animals on day zero. From day one onwards to day 10 the animals were treated twice daily with the protective compound (100 mg/kg; per os). On day 11 the extent of gastric damage was determined."}, "[7]": {"experiment": "Gastric damage (HCl - Gastrin ulcer) caused by tetragastrin", "format": "in vivo, rats", "conditions": "100 mg/kg/treatment per os twice daily, days 1-14; tetragastrin 100 μg/kg/day i.p.; day 15; vs untreated control", "method": "Each animal was treated with hydrochloric acid (0,2 ml of a 20% solution; per os) on day zero. From day one onwards to day 14 the animals were treated once daily with tetragastrin (100 μg/kg/day; intraperitoneal injection) and twice daily with the protective compound (100 mg/kg/treatment; per os in tragacanth). On day 15 the extent of gastric damage was determined."}, "[8]": {"experiment": "Effect on gastric damage caused by indomethacin", "format": "in vivo, rats", "method": "(§2) Gastric damage caused by irritant substances (e.g. aspirin, indomethacin or other acidic analgesic/anti-inflammatory drugs) is assessed by applying a suitable dose of the protective compound followed later by a relatively high dose of the irritant (in the case of aspirin, approximately 550 mg/kg). After a further 5 hours, the extent of gastric damage is determined."}, "[9]": {"conditions": "mice; Shibata 1981, p. 65; cited from earlier work"}, "[10]": {"experiment": "Gastric damage caused by reserpine", "format": "in vivo, rats", "conditions": "100 mg/kg per os; reserpine 6 mg/kg s.c.; after 16 hours; vs untreated control", "method": "The animals were treated with oleanolic acid (per os; tragacanth vehicle) and directly thereafter with reserpine (6 mg/kg; subcutaneous injection). After 16 hours the extent of gastic damage was determined."}, "[11]": {"experiment": "Analgesic activity (acetic acid induced spasms)", "format": "in vivo", "conditions": "rats; for Average No. of spasms (25 mins): untreated control 43.75", "method": "as §1, with “compound: […]” for “compound:”"}, "mice [12]": {"tested_on": "mice", "experiment": "Acute toxicity of oleanolic acid", "format": "in vivo", "conditions": "oral route"}, "[13]": {"conditions": "oral; British Pat. No. 1,251,976, Example 10; cited from earlier work"}, "[14]": {"experiment": "Activity against stress induced ulcers", "format": "in vivo", "conditions": "100 mg/kg, rats, 24 h plaster bandage; drug 1 h before and 6 h after", "method": "The effect of compounds on this formation of stress ulcers is assessed by applying the drugs 1 hour before encasing the animals in the bandage and again 6 hours after encasing the animals. After 24 hours, the bandage is removed and gastric damage is assessed compared to that of untreated animals."}, "[15]": {"experiment": "Healing effect on thermally induced ulceration", "format": "in vivo, rats", "conditions": "100 mg/kg per os twice daily, days 1-13; day 14; vs untreated control", "method": "Thermal stomach ulceration was induced on day zero by means of a heated (75° C.) stainless steel stamp (5 mm in diameter). From day one onwards to day 13 the animals were treated twice daily with oleanolic acid (100 mg/kg; per os in tragacanth). On day 14 the animals were examined for the extent of gastric damage."}, "[16]": {"experiment": "Effect on gastric damage caused by aspirin", "format": "in vivo, rats", "conditions": "aspirin approximately 550 mg/kg", "method": "as §2"}}, "note": "Structures can show the parent of a compound that is named as a salt.", "data": [{"smiles": "CC(=O)Oc1ccccc1C(=O)O", "note": "[Aspirin]", "values": [{"measurement": "% inhibition of swelling", "setting": "[1]; aspirin 25 mg/kg oral (combination: plus oleanolic acid 25 mg/kg), 1.5 hrs", "result": 12, "unit": "%"}, {"measurement": "% inhibition of swelling", "setting": "[1]; aspirin 25 mg/kg oral (combination: plus oleanolic acid 25 mg/kg), 3 hrs", "result": 17, "unit": "%"}, {"measurement": "% inhibition of swelling", "setting": "[1]; aspirin 25 mg/kg oral (combination: plus oleanolic acid 25 mg/kg), 4.5 hrs", "result": 11, "unit": "%"}, {"measurement": "% inhibition of swelling", "setting": "[1]; aspirin 25 mg/kg oral (combination: plus oleanolic acid 25 mg/kg), 6 hrs", "result": 18, "unit": "%"}, {"measurement": "% inhibition of swelling", "setting": "[1]; aspirin 50 mg/kg oral (combination: plus oleanolic acid 50 mg/kg), 1.5 hrs", "result": 18, "unit": "%"}, {"measurement": "% inhibition of swelling", "setting": "[1]; aspirin 50 mg/kg oral (combination: plus oleanolic acid 50 mg/kg), 3 hrs", "result": 32, "unit": "%"}, {"measurement": "% inhibition of swelling", "setting": "[1]; aspirin 50 mg/kg oral (combination: plus oleanolic acid 50 mg/kg), 4.5 hrs", "result": 17, "unit": "%"}, {"measurement": "% inhibition of swelling", "setting": "[1]; aspirin 50 mg/kg oral (combination: plus oleanolic acid 50 mg/kg), 6 hrs", "result": 16, "unit": "%"}, {"measurement": "% inhibition of swelling", "setting": "[1]; aspirin 100 mg/kg oral (combination: plus oleanolic acid 100 mg/kg), 1.5 hrs", "result": 30, "unit": "%"}, {"measurement": "% inhibition of swelling", "setting": "[1]; aspirin 100 mg/kg oral (combination: plus oleanolic acid 100 mg/kg), 3 hrs", "result": 42, "unit": "%"}, {"measurement": "% inhibition of swelling", "setting": "[1]; aspirin 100 mg/kg oral (combination: plus oleanolic acid 100 mg/kg), 4.5 hrs", "result": 32, "unit": "%"}, {"measurement": "% inhibition of swelling", "setting": "[1]; aspirin 100 mg/kg oral (combination: plus oleanolic acid 100 mg/kg), 6 hrs", "result": 23, "unit": "%"}, {"measurement": "% inhibition of swelling", "setting": "[1]; aspirin 200 mg/kg oral (combination: plus oleanolic acid 200 mg/kg), 1.5 hrs", "result": 45, "unit": "%"}, {"measurement": "% inhibition of swelling", "setting": "[1]; aspirin 200 mg/kg oral (combination: plus oleanolic acid 200 mg/kg), 3 hrs", "result": 52, "unit": "%"}, {"measurement": "% inhibition of swelling", "setting": "[1]; aspirin 200 mg/kg oral (combination: plus oleanolic acid 200 mg/kg), 4.5 hrs", "result": 34, "unit": "%"}, {"measurement": "% inhibition of swelling", "setting": "[1]; aspirin 200 mg/kg oral (combination: plus oleanolic acid 200 mg/kg), 6 hrs", "result": 30, "unit": "%"}, {"measurement": "LD50", "setting": "mice [2]", "result": 1110, "unit": "mg/kg"}, {"measurement": "LD50", "setting": "[3]; combined", "result": 1800, "unit": "mg/kg"}, {"measurement": "LD50", "setting": "[3]; females", "result": 2100, "unit": "mg/kg"}, {"measurement": "ED50", "setting": "[4]; po", "result": 22.3, "unit": "mg/kg"}, {"measurement": "effect on occurrence of pulmonary thrombo-embolism", "setting": "[5]", "result": "inhibits the occurrence"}, {"measurement": "ED50", "setting": "[5]; read-out: ED50 (antithrombotic effect)", "result": 41, "unit": "mg/kg"}]}, {"smiles": "CC1(C)[C@@H](OC(=O)CCC(=O)O)CC[C@]2(C)[C@H]3C(=O)C=C4[C@@H]5C[C@@](C)(C(=O)O)CC[C@]5(C)CC[C@@]4(C)[C@]3(C)CC[C@@H]12", "note": "[Carbenoxolone sodium, disodium salt of the hemisuccinate of glycyrrhetinic acid, reference compound]", "values": [{"measurement": "reduction of gastric damage (acetic acid ulceration)", "setting": "[6]", "result": 42, "unit": "%"}]}, {"smiles": "CN/C(=N/CCSCc1nc[nH]c1C)NC#N", "note": "[Cimetidine, reference compound]", "values": [{"measurement": "inhibition of gastric damage (HCl - Gastrin ulcer)", "setting": "[7]", "result": 41, "unit": "%"}]}, {"smiles": "CC1(C)CC[C@]2(C(=O)O)CC[C@]3(C)C(=CC[C@@H]4[C@@]5(C)CC[C@H](O)C(C)(C)[C@@H]5CC[C@]43C)[C@@H]2C1", "note": "[Oleanolic acid, oleanolic acid]", "values": [{"measurement": "inhibition of gastric damage (HCl - Gastrin ulcer)", "setting": "[7]", "result": "about 49%"}, {"measurement": "Percentage inhibition of Indomethacin induced gastric damage", "setting": "[8]; 10 mg/kg", "result": 61, "unit": "%"}, {"measurement": "Percentage inhibition of Indomethacin induced gastric damage", "setting": "[8]; 30 mg/kg", "result": 66, "unit": "%"}, {"measurement": "Percentage inhibition of Indomethacin induced gastric damage", "setting": "[8]; 100 mg/kg", "result": 80, "unit": "%"}, {"measurement": "Percentage inhibition of Indomethacin induced gastric damage", "setting": "[8]; 300 mg/kg", "result": 86, "unit": "%"}, {"measurement": "inhibiting activity against stress-induced ulceration", "setting": "[9]", "result": "non-significant, if any, inhibiting activity"}, {"measurement": "inhibition of reserpine induced gastric damage", "setting": "[10]", "result": 25, "unit": "%"}, {"measurement": "reduction of gastric damage (acetic acid ulceration)", "setting": "[6]", "result": 73, "unit": "%"}, {"measurement": "ED50", "setting": "[4]; rats, oral, acetic acid spasms", "result": 55.8, "unit": "mg/kg"}, {"measurement": "% Inhibition of spasms", "setting": "[11]; 10 mg/kg oral", "result": 8.6, "unit": "%"}, {"measurement": "Average No. of spasms (25 mins)", "setting": "[11]; 10 mg/kg oral", "result": 40.0}, {"measurement": "% Inhibition of spasms", "setting": "[11]; 31.6 mg/kg oral", "result": 49.4, "unit": "%"}, {"measurement": "Average No. of spasms (25 mins)", "setting": "[11]; 31.6 mg/kg oral", "result": 22.12}, {"measurement": "% Inhibition of spasms", "setting": "[11]; 100 mg/kg oral", "result": 65.7, "unit": "%"}, {"measurement": "Average No. of spasms (25 mins)", "setting": "[11]; 100 mg/kg oral", "result": 15.10}, {"measurement": "doses that did not cause any deaths", "setting": "mice [12]", "result": "up to 4000 mg/kg"}, {"measurement": "reduction in ulceration (glucose induced)", "setting": "[13]", "result": 8, "unit": "%"}, {"measurement": "inhibition of the mean total ulceration score", "setting": "[14]", "result": 83.5, "unit": "%"}, {"measurement": "effect on occurrence of pulmonary thrombo-embolism", "setting": "[5]", "result": "no effect"}, {"measurement": "reduction of gastric damage (thermal ulceration)", "setting": "[15]", "result": 59, "unit": "%"}, {"measurement": "Percentage inhibition of Aspirin induced gastric damage", "setting": "[16]; 30 mg/kg", "result": 28, "unit": "%"}, {"measurement": "Percentage inhibition of Aspirin induced gastric damage", "setting": "[16]; 100 mg/kg", "result": 49, "unit": "%"}, {"measurement": "Percentage inhibition of Aspirin induced gastric damage", "setting": "[16]; 300 mg/kg", "result": 69, "unit": "%"}]}, {"smiles": "CC1(C)CC[C@]2(C(=O)O)CC[C@]3(C)C(=CC[C@@H]4[C@@]5(C)CC[C@H](O)C(C)(C)[C@@H]5CC[C@]43C)[C@@H]2C1", "note": "[Sodium oleanolate]", "values": [{"measurement": "Percentage inhibition of Aspirin induced gastric damage", "setting": "[16]; 30 mg/kg", "result": 1, "unit": "%"}, {"measurement": "Percentage inhibition of Aspirin induced gastric damage", "setting": "[16]; 100 mg/kg", "result": 30, "unit": "%"}, {"measurement": "Percentage inhibition of Aspirin induced gastric damage", "setting": "[16]; 300 mg/kg", "result": 47, "unit": "%"}]}, {"smiles": "CC1(C)[C@@H](O)CC[C@]2(C)[C@H]3CC=C4[C@@H]5C[C@@](C)(CO)CC[C@]5(C)CC[C@@]4(C)[C@]3(C)CC[C@@H]12", "note": "[olean-12-en-3β, 30-diol, reference compound]", "values": [{"measurement": "inhibiting activity against stress-induced ulceration", "setting": "[9]", "result": "promising inhibiting activity"}]}]}
